Assay results from patent publication US20230051204A1, “ANTIMICROBIAL COMPOSITION CONTAINING WASP EXTRACT AS ACTIVE INGREDIENT” (priority 2021, published 2023).
“And” between values parts separate entries of the source, which are not always exact repeats. Equal values may be shown once.

Experiments:
human erythrocytes = test: Human erythrocyte hemolytic activity; details: 37° C., 30 minutes
Protocol: In order to evaluate the acute toxicities of the Vespa velutina nigrithorax, V. simillima simillima Smith and V. mandarinia Smith extracts and the fractions thereof, the human erythrocyte hemolytic activities thereof were evaluated. At this time, the hemolytic activity was evaluated according to a previous report (Son Ho-Yong et al., 2014, Korean J. Microbiol. Biotechnol. 42: 285-292). Briefly, 100 μl of human erythrocytes were washed three times with PBS and added to a 96-well microplate, and 100 μl of a sample solution at various concentrations was added thereto and then allowed to react at 37° C. for 30 minutes. Thereafter, the reaction solution was centrifuged at 1,500 rpm for 10 minutes, and 100 μl of the supernatant was transferred to a fresh microtiter plate, and then the degree of hemoglobin leakage following hemolysis was measured at 414 nm. DMSO (2%) was used as a solvent control for the sample, and Triton X-100 (1 mg/ml) was used as an experimental control for hemolysis of erythrocytes. Hemolytic activity was calculated using the following equation.
(%) Hemolysis=[(Abs. S−Abs. C)/(Abs. T−Abs. C)]×100
Abs. S: absorbance of sample-added group
Abs. C: absorbance of DMSO-added group
Abs. T: absorbance of Triton X-100-added group

[1] = system: gram-positive bacteria, gram-negative bacteria and fungi; test: Disc-paper clear zone test, summary over the whole panel; assay type: cell-based; details: 1 μg/disc; span over the gram-positive and gram-negative bacteria; read-out: Clear zone size
Excerpt: (§1) For evaluation of the antibacterial activities, the following strains were used: Escherichia coli KCTC 1682, Proteus vulgaris KCTC 2433, Pseudomonas aeruginosa KACC 10186, and Salmonella typhimurium KCTC 1926, which are Gram-negative bacteria, and Staphylococcus aureus KCTC 1916, Staphylococcus epidermidis ATCC 12228, and Listeria monocytogenes KACC 10550, Bacillus subtilis KCTC 1924, which are Gram-positive bacteria. Meanwhile, for evaluation of the antifungal activities, Saccharomyces cerevisiae IF0 0233 and Candida albicans KCTC 1940 that causes Candidiasis fungal infection were used.
First, for evaluation of the antibacterial activities, each bacterial strain was inoculated into nutrient broth (Difco Co., USA) and cultured at 37° C. for 24 hours. […] For evaluation of the antifungal activities, each fungal strain was cultured using Sabouraud dextrose (Difco Co. USA) at 30° C. for 24 hours in the same manner as described above, and the antifungal activity of each extract sample was evaluated by measuring the size of the clear zone. […] The size of the clear zone was measured by measuring, in units of mm, the diameter of the part where growth was invisible with the naked eye, and was expressed as a representative result after three or more evaluations.

[2] = system: Proteus vulgaris KCTC 2433; test: Disc-paper clear zone test, antibacterial; assay type: cell-based; set-up: key: —: no clear zone; details: antibiotic 1 μg/disc; PV
Excerpt: as §1
(§2) First, for evaluation of the antibacterial activities, each bacterial strain was inoculated into nutrient broth (Difco Co., USA) and cultured at 37° C. for 24 hours. Then, each strain was adjusted to an O.D.600 of 0.1, and then 100 μl of each strain was plated on a Petri dish (90 mm, Green Cross, Korea) containing nutrient agar (Difco Co., USA) medium, and 5 μl of each extract sample added to sterile disc-paper (6.5 mm diameter, Whatsman No. 2) was added to each strain which was then incubated at 37° C. for 24 hours. For evaluation of the antifungal activities, each fungal strain was cultured using Sabouraud dextrose (Difco Co. USA) at 30° C. for 24 hours in the same manner as described above, and the antifungal activity of each extract sample was evaluated by measuring the size of the clear zone. As a control, each of the antibacterial agent ampicillin and the antifungal agent miconazole (Sigma Co., USA) was at a concentration of 1 μg/disc. The size of the clear zone was measured by measuring, in units of mm, the diameter of the part where growth was invisible with the naked eye, and was expressed as a representative result after three or more evaluations.
(§3) The antimicrobial activities of the fraction of each of the Vespa velutina nigrithorax, V. simillima simillima Smith and V. mandarinia Smith extracts, prepared in Example 4, were measured according to the same method as the antibacterial and antifungal activity evaluation described in Example 3.

[3] = system: Pseudomonas aeruginosa KACC 10186; test: Disc-paper clear zone test, antibacterial; assay type: cell-based; set-up: key: —: no clear zone; details: antibiotic 1 μg/disc; PA
Excerpt: as §1, §2, §3

[4] = system: Salmonella typhimurium KCTC 1926; test: Disc-paper clear zone test, antibacterial; assay type: cell-based; set-up: key: —: no clear zone; details: antibiotic 1 μg/disc; ST
Excerpt: as §1, §2, §3

[5] = system: Listeria monocytogenes KACC 10550; test: Disc-paper clear zone test, antibacterial; assay type: cell-based; set-up: key: —: no clear zone; details: antibiotic 1 μg/disc; LM
Excerpt: as §1, §2, §3

[6] = system: Staphylococcus epidermidis ATCC 12228; test: Disc-paper clear zone test, antibacterial; assay type: cell-based; set-up: key: —: no clear zone; details: antibiotic 1 μg/disc; SE
Excerpt: as §1, §2, §3

[7] = system: Escherichia coli KCTC 1682; test: Disc-paper clear zone test, antibacterial; assay type: cell-based; set-up: key: —: no clear zone; details: antibiotic 1 μg/disc; EC
Excerpt: as §1, §2, §3

[8] = system: Staphylococcus aureus KCTC 1916; test: Disc-paper clear zone test, antibacterial; assay type: cell-based; set-up: key: —: no clear zone; details: antibiotic 1 μg/disc; SA
Excerpt: as §1, §2, §3

[9] = system: Bacillus subtilis KCTC 1924; test: Disc-paper clear zone test, antibacterial; assay type: cell-based; set-up: key: —: no clear zone; details: antibiotic 1 μg/disc; BS
Excerpt: as §1, §2, §3

[10] = system: Candida albicans KCTC 1940; test: Disc-paper clear zone test, antifungal; assay type: cell-based; set-up: key: —: no clear zone; details: antibiotic 1 μg/disc; CA
Excerpt: as §1, §2, §3

[11] = system: Saccharomyces cerevisiae IF0 0233; test: Disc-paper clear zone test, antifungal; assay type: cell-based; set-up: key: —: no clear zone; details: antibiotic 1 μg/disc; SC
Excerpt: as §1, §2, §3

In the case of `C[C@@H]1[C@H](O)[C@@H](C)/C=C/C=C/C=C/C=C/C=C/C=C/C=C/[C@H](O[C@@H]2O[C@H](C)[C@@H](O)[C@H](N)[C@@H]2O)C[C@@H]2O[C@](O)(C[C@@H](O)C[C@@H](O)[C@H](O)CC[C@@H](O)C[C@@H](O)CC(=O)O[C@H]1C)C[C@H](O)[C@H]2C(=O)O` [Amphotericin B], the “Human erythrocyte hemolytic activity” value (human erythrocytes; 0.0032 mg/ml) is reported as 6.5 ± 0.9%, the “Human erythrocyte hemolytic activity” value (human erythrocytes; 0.0063 mg/ml) is reported as 21.6 ± 3.7% and the “Human erythrocyte hemolytic activity” value (human erythrocytes; 0.0125 mg/ml) is reported as 48.2 ± 5.9%. For the same molecule, the “Human erythrocyte hemolytic activity” value (human erythrocytes; 0.05 mg/ml) was 72.4 ± 5.2% and the “Human erythrocyte hemolytic activity” value (human erythrocytes; 0.1 mg/ml) was 95.8 ± 0.3%.

`CC1(C)S[C@@H]2[C@H](NC(=O)[C@H](N)c3ccccc3)C(=O)N2[C@H]1C(=O)O` [Ampicillin, ampicillin] showed a zone of inhibition at 1 µg/disc [1] of 9 to 30 mm, a Clear zone [2] of 30.0 mm and a Clear zone [3] of 16.0 mm. It also gave a Clear zone [4] of 20.0 mm, a Clear zone [5] of 26.0 mm and a Clear zone [6] of 20.0 mm. The Clear zone [7] was 9.0 mm, the Clear zone [8] was 26.0 mm and the Clear zone [9] was 23.5 mm. The Clear zone [10] was “—” and the Clear zone [11] was “—”.

In the case of `Clc1ccc(COC(Cn2ccnc2)c2ccc(Cl)cc2Cl)c(Cl)c1` (stereo not drawn) [Miconazole, miconazole], the Clear zone [2] is reported as “—”, the Clear zone [3] is reported as “—” and the Clear zone [4] is reported as “—”. The Clear zone [5] was “—”, the Clear zone [6] was “—” and the Clear zone [7] was “—”. The Clear zone [8] was “—”, the Clear zone [9] was “—” and the Clear zone [10] was 8.5 mm. It also gave a Clear zone [11] of 8.5 mm.

Triton X-100 was tested, and the “Human erythrocyte hemolytic activity” value (human erythrocytes; 1.0 mg/ml) was 100% and 100.0 ± 0.1%.
